# Results from patent publication US20250019387A1 (Frontier Medicines Corporation, priority 0001, published 2025).
# Target: KRAS G12C and cRAF (Ras-binding domain) interaction (Homo sapiens (Human), UniProt P01116, C118S/C51S/C80L/G12C)
# Assay: Inhibition of KRAS G12C and cRAF binding (AlphaScreen)
# Settings: GMPPNP-loaded KRAS G12C, 19-20 hours incubation with compound; read-out: IC50 (Inhibition of KRAS G12C and cRAF Binding)
# How it was run: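 Compounds (DMSO) preincubated 19-20 h at room temperature, then RBD with streptavidin donor and glutathione acceptor beads added in 25 mM Hepes pH 7.4, 150 mM NaCl, 5 mM MgCl2, 0.01% Triton X-100, 2% DMSO for 60-90 min. Emission 570 nm (excitation 680 nm); IC50 by 4-parameter fit. Counter-screen used biotin-AviTag-GST instead of RBD.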
# KRAS G12C and cRAF (Ras-binding domain) interaction, sequence (P01116 other isoform, or with tags, fused parts or gaps G12C/C51S/C80L/C118S): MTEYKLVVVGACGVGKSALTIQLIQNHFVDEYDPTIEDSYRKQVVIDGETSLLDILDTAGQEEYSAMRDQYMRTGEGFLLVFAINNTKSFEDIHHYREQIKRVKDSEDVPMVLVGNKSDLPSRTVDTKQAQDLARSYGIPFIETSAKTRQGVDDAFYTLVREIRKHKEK
row,SMILES,IC50 [µM]
1,"C=CC(=O)N1CC[C@@H](N(C)c2nc(OCC34CCCN3CCC4)nc3c(F)c(-c4cccc5ccc(F)c(CC)c45)ncc23)C1 [Example 253, (R)-1-(3-((7-(8-ethyl-7-fluoronaphthalen-1-yl)-8-fluoro-2-((tetrahydro-1H-pyrrolizin-7a(5H)-yl)methoxy)pyrido[4,3-d]pyrimidin-4-yl)(methyl)amino)pyrrolidin-1-yl)prop-2-en-1-one]",0.1 to 0.5
2,"CN1CCC[C@H]1COc1nc(N(C)[C@@H]2CCN(C#N)C2)c2cnc(-c3cccc4cccc(Cl)c34)c(F)c2n1 [Example 36, (R)-3-((7-(8-chloronaphthalen-1-yl)-8-fluoro-2-(((S)-1-methylpyrrolidin-2-yl)methoxy)pyrido[4,3-d]pyrimidin-4-yl)(methyl)amino)pyrrolidine-1-carbonitrile]",0.01 to 0.1
3,"CCN(CCNC(=O)/C=C/C(=O)OC)c1nc(OC[C@@H]2CCCN2C)nc2c1CCN(c1cccc3cccc(Cl)c13)C2 [Example 12, methyl(S,E)-4-((2-((7-(8-chloronaphthalen-1-yl)-2-((1-methylpyrrolidin-2-yl)methoxy)-5,6,7,8-tetrahydropyrido[3,4-d]pyrimidin-4-yl)(ethyl)amino)ethyl)amino)-4-oxobut-2-enoate]",> 0.5
4,"CN(CC1CN(C#N)C1)c1nc(OC[C@@H]2CCCN2C)nc2c1CCN(c1cccc3cccc(Cl)c13)C2 [Example 30, (S)-3-(((7-(8-chloronaphthalen-1-yl)-2-((1-methylpyrrolidin-2-yl)methoxy)-5,6,7,8-tetrahydropyrido[3,4-d]pyrimidin-4-yl)(methyl)amino)methyl)azetidine-1-carbonitrile]",> 0.5

# Results, then the molecule that gave them:
row,IC50 [µM],SMILES
1,0.01 to 0.1,"CN(c1nc(OC[C@@]23CCCN2C[C@H](F)C3)nc2c(F)c(-c3cccc4cccc(Cl)c34)ncc12)[C@H]1CN(C(=O)/C=C/c2nc(C(C)(C)O)no2)C[C@@H]1F [Example 56, (E)-1-((3S,4S)-3-((7-(8-chloronaphthalen-1-yl)-8-fluoro-2-(((2R,7aS)-2-fluorohexahydro-1H-pyrrolizin-7a-yl)methoxy)pyrido[4,3-d]pyrimidin-4-yl)(methyl)amino)-4-fluoropyrrolidin-1-yl)-3-(3-(2-hydroxypropan-2-yl)-1,2,4-oxadiazol-5-yl)prop-2-en-1-one]"
2,0.1 to 0.5,"CCc1c(F)ccc2cccc(-c3ncc4c(N(C)[C@@H]5CCN(C(=O)/C=C/c6cc(C)nc(C)n6)C5)nc(OC[C@@]56CCCN5C[C@H](F)C6)nc4c3F)c12 [Example 279, (E)-3-(2,6-dimethylpyrimidin-4-yl)-1-((R)-3-((7-(8-ethyl-7-fluoronaphthalen-1-yl)-8-fluoro-2-(((2R,7aS)-2-fluorotetrahydro-1H-pyrrolizin-7a(5H)-yl)methoxy)pyrido[4,3-d]pyrimidin-4-yl)(methyl)amino)pyrrolidin-1-yl)prop-2-en-1-one]"
3,< 0.01,"CC(C)OC(=O)/C=C/C(=O)N1CC[C@@H](N(C)c2nc(OCC34CCCN3CCC4)nc3c2CCN(c2cccc4cccc(Cl)c24)C3)C1 [Example 18, isopropyl(R,E)-4-(3-((7-(8-chloronaphthalen-1-yl)-2-((tetrahydro-1H-pyrrolizin-7a(5H)-yl)methoxy)-5,6,7,8-tetrahydropyrido[3,4-d]pyrimidin-4-yl)(methyl)amino)pyrrolidin-1-yl)-4-oxobut-2-enoate]"
4,0.01 to 0.1,"CC(C)c1noc(/C=C/C(=O)N2CC[C@@H](N(C)c3nc(OC[C@@]45CCCN4C[C@H](F)C5)nc4c3CCN(c3cccc5cccc(Cl)c35)C4)C2)n1 [Example 136, (E)-1-((R)-3-((7-(8-chloronaphthalen-1-yl)-2-(((2R,7aS)-2-fluorohexahydro-1H-pyrrolizin-7a-yl)methoxy)-5,6,7,8-tetrahydropyrido[3,4-d]pyrimidin-4-yl)(methyl)amino)pyrrolidin-1-yl)-3-(3-isopropyl-1,2,4-oxadiazol-5-yl)prop-2-en-1-one]"
5,< 0.01,"C[C@@H](F)c1noc(/C=C/C(=O)N2CC[C@@H](N(C)c3nc(OC[C@@]45CCCN4C[C@H](F)C5)nc4c(F)c(-c5cccc6cccc(Cl)c56)ncc34)C2)n1 [Example 84, (E)-1-((R)-3-((7-(8-chloronaphthalen-1-yl)-8-fluoro-2-(((2R,7aS)-2-fluorotetrahydro-1H-pyrrolizin-7a(5H)-yl)methoxy)pyrido[4,3-d]pyrimidin-4-yl)(methyl)amino)pyrrolidin-1-yl)-3-(3-((R)-1-fluoroethyl)-1,2,4-oxadiazol-5-yl)prop-2-en-1-one]"
6,0.1 to 0.5,CN(c1nc(OC[C@@]23CCCN2C[C@H](F)C3)nc2c(F)c(-c3cccc4ccc(F)c(Cl)c34)ncc12)[C@@H]1CCN(C(=O)/C=C/C2CNCCO2)C1 (stereo partly shown) [Example 122]
7,> 0.5,"CN(c1nc(OC[C@@]23CCCN2C[C@H](F)C3)nc2c(F)c(-c3cccc4cccc(Cl)c34)ncc12)[C@@H]1CCN(C(=O)C#CCN2CCOCC2)C1 [Example 92, 1-((R)-3-((7-(8-chloronaphthalen-1-yl)-8-fluoro-2-(((2R,7aS)-2-fluorohexahydro-1H-pyrrolizin-7a-yl)methoxy)pyrido[4,3-d]pyrimidin-4-yl)(methyl)amino)pyrrolidin-1-yl)-4-morpholinobut-2-yn-1-one]"
8,0.01 to 0.1,"C#Cc1c(F)ccc2cccc(-c3ncc4c(N(C)[C@@H]5CCN(C(=O)/C=C/c6nc(C)nc(C)c6F)C5)nc(OC[C@@]56CCCN5C[C@H](F)C6)nc4c3F)c12 [Example 302, (E)-1-((R)-3-((7-(8-ethynyl-7-fluoronaphthalen-1-yl)-8-fluoro-2-(((2R,7aS)-2-fluorotetrahydro-1H-pyrrolizin-7a(5H)-yl)methoxy)pyrido[4,3-d]pyrimidin-4-yl)(methyl)amino)pyrrolidin-1-yl)-3-(5-fluoro-2,6-dimethylpyrimidin-4-yl)prop-2-en-1-one]"

# Same assay, conditions: additional exemplary compounds; KRAS G12C and cRAF binding; read-out: RAF1 RBD IC50
row,SMILES,IC50 [µM]
1,N#CN1C2CCC1CN(c1nc(OC[C@@]34CCCN3C[C@H](F)C4)nc3c1CCN(c1cccc4ccc(F)c(Cl)c14)C3)C2,> 0.5
2,C#Cc1c(F)ccc2cccc(-c3ncc4c(N(C)[C@H]5CCN(C(=O)C=C)C5)nc(OC[C@]56CCCN5C[C@H](F)C6)nc4c3F)c12,> 0.5
3,CN(c1nc(OCC23CCCN2CCC3)nc2c(F)c(-c3cccc4cccc(Cl)c34)ncc12)[C@@H]1CCN(C#N)C1,< 0.01
4,CN(C)C/C=C/S(=O)(=O)CCN(C)c1nc(OCC23CCCN2CCC3)nc2c1CCN(c1cccc3ccc(F)c(Cl)c13)C2,< 0.01
5,O=C(/C=C/CN1CCOCC1)N1[C@@H]2CC[C@H]1CN(c1nc(OC[C@@]34CCCN3C[C@H](F)C4)nc3c(F)c(-c4cccc5cccc(Cl)c45)ncc13)C2,> 0.5
6,C=CC(=O)N1C[C@@H](N(C)c2nc(OCC34CCCN3CCC4)nc3c(F)c(-c4cccc5cccc(Cl)c45)ncc23)C[C@@H]1CC#N,> 0.5
7,C=CC(=O)N1CC(CN(C)c2nc(OC[C@@]34CCCN3C[C@@H](F)C4)nc3c(F)c(-c4cccc5cccc(Cl)c45)ncc23)C1,> 0.5
8,C=CC(=O)N1C[C@@H](F)[C@H](N(C)c2nc(OC[C@@]34CCCN3C[C@H](F)C4)nc3c(F)c(-c4cccc5cccc(Cl)c45)ncc23)C1,> 0.5
9,O=C(/C=C/CN1C2CCC1COC2)N1CCN(c2nc(OC[C@@]34CCCN3C[C@H](F)C4)nc3c(F)c(-c4cccc5cccc(Cl)c45)ncc23)C2CC21 (stereo partly shown),> 0.5
10,C=CC(=O)CCCN(C)c1nc(OC[C@@H]2CCCN2C)nc2c1CCN(c1cccc3ccccc13)C2,> 0.5
11,C/C=C/C(=O)CN(C)c1nc(OC[C@@H]2CCCN2C)nc2c1CCN(c1cccc3ccccc13)C2,> 0.5
12,C=CC(=O)N1CC[C@@H](N(C)c2nc(OC[C@@H]3CCCN3C)nc3c(F)c(-c4cccc5cccc(Cl)c45)ncc23)C1,> 0.5
13,C=CC(=O)N1CC[C@@H](Nc2nc(OC[C@@]34CCCN3C[C@H](F)C4)nc3c(F)c(-c4cccc5cccc(Cl)c45)ncc23)C1,> 0.5
14,N#CN1C2CCC1CN(c1nc(OC[C@@]34CCCN3C[C@H](F)C4)nc3c1CCN(c1cccc4cccc(Cl)c14)C3)C2,> 0.5
15,C=CC(=O)CCCN(C)c1nc(OC[C@@H]2CCCN2C)nc2c1CCN(c1cccc3cccc(Cl)c13)C2,< 0.01

# Other lines, results leading:
row,IC50 [µM],SMILES
1,> 0.5,CN(c1nc(OC[C@@]23CCCN2C[C@H](F)C3)nc2c(F)c(-c3cccc4cccc(Cl)c34)ncc12)[C@@H]1CCN(C(=O)/C=C/c2ccncn2)C1
2,0.1 to 0.5,CN(c1nc(OC[C@@]23CCCN2C[C@H](F)C3)nc2c(F)c(-c3cccc4cccc(Cl)c34)ncc12)[C@@H]1CCN(C(=O)/C=C/CN2CCCS2(=O)=O)C1
3,0.1 to 0.5,CN(c1nc(OC[C@@]23CCCN2C[C@H](F)C3)nc2c(F)c(-c3cccc4ccc(F)c(Cl)c34)ncc12)[C@@H]1CCN(C(=O)/C=C/C2CNC2)C1
4,0.1 to 0.5,Cc1noc(/C=C/C(=O)NCCN(C)c2nc(OCC34CCCN3CCC4)nc3c2CCN(c2cccc4cccc(Cl)c24)C3)n1
5,0.01 to 0.1,C=CC(=O)N1CC[C@@H](N(C)c2nc(OC[C@@]34CCCN3C[C@H](F)C4)nc3c(F)c(-c4cccc5cccc(C(F)(F)F)c45)ncc23)C1
6,0.1 to 0.5,C=CS(=O)(=O)[C@H]1C[C@H](N(C)c2nc(OCC34CCCN3CCC4)nc3c2CCN(c2cccc4cccc(Cl)c24)C3)C1
7,0.01 to 0.1,CN(C)C/C=C/C(=O)N1CC[C@@H](N(C)c2nc(OC[C@@]34CCCN3C[C@H](F)C4)nc3c(F)c(-c4cccc5ccc(F)c(Cl)c45)ncc23)C1
8,> 0.5,C=CC(=O)N1CC(CNc2nc(OC[C@@]34CCCN3C[C@H](F)C4)nc3c2CCN(c2cccc4cccc(Cl)c24)C3)C1
9,> 0.5,C=CC(=O)N1CCC(CN(C)c2nc(OC[C@@]34CCCN3C[C@H](F)C4)nc3c(F)c(-c4cccc5cccc(Cl)c45)ncc23)C1 (stereo partly shown)
10,> 0.5,C=CC(=O)N1CC[C@@H](Nc2nc(OC[C@@]34CCCN3C[C@H](F)C4)nc3c2CCN(c2cccc4cccc(Cl)c24)C3)C1
